The results in this text go back to patent US10689344B2, “Biphenylamide derivative Hsp90 inhibitors” (University of Kansas, priority 2013, dated 2020).

Usually IC50 stands for the point on the concentration scale where inhibition reaches its midpoint. The low end stands for greater potency, the high end for weaker potency.

In assay [1] the test system is SKBr3 (estrogen receptor negative, HER2 over-expressing breast cancer cells). As to the kind of experiment: Anti-proliferation assay (MTS/PMS, 72 h), SKBr3. Type of assay: cell-based. As to conditions: Homo sapiens. As to the method:
(§1) Cells were maintained in a 1:1 mixture of Advanced DMEM/F12 (Gibco) supplemented with non-essential amino acids, L-glutamine (2 mM), streptomycin (500 μg/mL), penicillin (100 units/mL), and 10% FBS. Cells were grown to confluence in a humidified atmosphere (37° C., 5% CO2), seeded (2000/well, 100 μL) in 96-well plates, and allowed to attach overnight. Compound at varying concentrations in DMSO (1% DMSO final concentration) was added, and cells were returned to the incubator for 72 h. At 72 h, the number of viable cells was determined using an MTS/PMS cell proliferation kit (Promega) per the manufacturer's instructions. Cells incubated in 1% DMSO were used at 100% proliferation, and values were adjusted accordingly. IC50 values were calculated from separate experiments performed in triplicate using GraphPad Prism.
(§2) Anti-proliferative studies with the compounds described herein were performed against the SKBr3 (estrogen receptor negative, HER2 over-expressing breast cancer cells) and MCF-7 (estrogen receptor positive breast cancer cells) breast cancer cell lines. […] In some embodiments, in contrast to the novobiocin derivatives, which usually manifest better anti-proliferative activities against the SKBr3 cell line, the biphenyl derivatives described herein were more efficacious against the MCF-7 cell line. In general, all substitutions on the phenyl ring were determined to be beneficial, consistent with the existence of a hydrophobic pocket in this region of the Hsp90 C-terminal binding site.

Assay [2] has as its system MCF-7 (estrogen receptor positive breast cancer cells). The assay can be described thus: Anti-proliferation assay (MTS/PMS, 72 h), MCF-7. Format: cell-based. The note with it: Homo sapiens. As to the method: as §1, §2
Where [3] appears, read: SK-BR-3, Table 2, para-meta biphenyl core with substituted benzylamide.
Setting [4] is: MCF7, Table 2, para-meta biphenyl core with substituted benzylamide.
Where [5] appears, read: SK-BR-3, Table 4, para-para heteroatom substituted biphenyl core.
The mark [6] stands for this setting: MCF7, Table 4, para-para heteroatom substituted biphenyl core.
Setting [7] is: SK-BR-3, Table 6, para-para biphenyl core with substituted benzylamide.
Setting [8] is: MCF7, Table 6, para-para biphenyl core with substituted benzylamide.
The mark [9] stands for this setting: SK-BR-3, Table 1, ortho, meta and para biphenyl cores.
The mark [10] stands for this setting: MCF7, Table 1, ortho, meta and para biphenyl cores.
[11] abbreviates: SK-BR-3, Table 3, substituted para-para biphenyl core.
Where [12] appears, read: MCF7, Table 3, substituted para-para biphenyl core.
[13] abbreviates: SK-BR-3, Table 8, para-para biphenyl core with substituted biphenylamide group.
The mark [14] stands for this setting: MCF7, Table 8, para-para biphenyl core with substituted biphenylamide group.

Turning to `CN1CCC(Oc2ccc(-c3cccc(NC(=O)c4cccc(Cl)c4)c3)cc2)CC1` [Compound 6i, 3-Chloro-N-(4′-((1-methylpiperidin-4-yl)oxy)-[1,1′-biphenyl]-3-yl)benzamide], the results for the IC50 in assay [1] (setting [3]) and in assay [2] (setting [4]) were 4290 ± 430 nM and 2110 ± 420 nM, respectively.
On to `Cc1cccc(C(=O)Nc2cccc(-c3ccc(OC4CCN(C)CC4)cc3)c2)c1` [Compound 6d, 3-methyl-N-(4′-((1-methylpiperidin-4-yl)oxy)-[1,1′-biphenyl]-3-yl)benzamide], for which the half-inhibitory concentration (IC50) in assay [1] (setting [3]) is 11400 ± 1370 nM; in assay [2] (setting [4]), 7730 ± 1900 nM.
The like results for `CN1CCC(Oc2ccc(-c3cccc(NC(=O)c4cc(Cl)cc(Cl)c4)c3)cc2)CC1` [Compound 6o, 3,5-Dichloro-N-(4′-((1-methylpiperidin-4-yl)oxy)-[1,1′-biphenyl]-3-yl)benzamide] were, in that order, 4230 ± 90 nM and 3720 ± 150 nM.
For `COc1cccc(-c2cc(C(=O)Nc3ccc(-c4ccc(OC5CC6CCC(C5)N6C)cc4)cc3)ccc2OC)c1` [Compound 56b, 3′,6-dimethoxy-N-(4′-(((1R,3s,5S)-8-methyl-8-azabicyclo[3.2.1]octan-3-yl)oxy)-[1,1′-biphenyl]-4-yl)-[1,1′-biphenyl]-3-carboxamide], the IC50 in assay [1] (SK-BR-3, Table 7, para-para biphenyl core with modified ether groups) turned out to be 1670 ± 600 nM; in assay [2] (MCF7, Table 7, para-para biphenyl core with modified ether groups), 1320 ± 230 nM.
Turning to `COc1cccc(-c2cc(C(=O)Nc3ccc(-c4ccc(OC5CCN(C)CC5)cn4)cc3)ccc2OC)c1` [Compound 19b, 3′,6-dimethoxy-N-(4-(5-((1-methylpiperidin-4-yl)oxy)pyridin-2-yl)phenyl)-[1,1′-biphenyl]-3-carboxamide], the IC50 is 1910 ± 210 nM in assay [1] (setting [5]) and 1300 ± 150 nM in assay [2] (setting [6]).
With `Cc1cc(C(=O)Nc2ccc(-c3ccc(OC4CCN(C)CC4)cc3)cc2)ccc1Cl` [Compound 41j, 4-chloro-3-methyl-N-(4′-((1-methylpiperidin-4-yl)oxy)-[1,1′-biphenyl]-4-yl)benzamide], the half-maximal inhibitory concentration (IC50) in assay [1] (setting [7]) came to 1110 ± 420 nM; in assay [2] (setting [8]), 1030 ± 160 nM.
Turning to `COc1ccc(C(=O)Nc2cccc(-c3cccc(OC4CCN(C)CC4)c3)c2)cc1` [Compound 61h, 4-methoxy-N-(3′-((1-methylpiperidin-4-yl)oxy)-[1,1′-biphenyl]-3-yl)benzamide], the IC50 in assay [1] (setting [9]) is 13200 ± 1970 nM; in assay [2] (setting [10]), 8200 nM.
On to `CN1CCC(Oc2ccc(-c3ccc(NC(=O)c4ccc(Cl)cc4)cc3)cc2)CC1` [Compound 41b, 4-chloro-N-(4′-((1-methylpiperidin-4-yl)oxy)-[1,1′-biphenyl]-4-yl)benzamide], for which the IC50 in assay [1] (setting [9]) came to 570 ± 10 nM; in assay [1] (setting [7]) it was 570 ± 10 nM; in assay [2] (setting [10]) it was 520 ± 30 nM; in assay [2] (setting [8]), 520 ± 30 nM.
Take `COc1cccc(-c2cc(C(=O)Nc3ccc(-c4ccc(OC5CCN(C)CC5)cc4)c([N+](=O)[O-])c3)ccc2OC)c1` [Compound 34c, 3′,6-dimethoxy-N-(4′-((1-methylpiperidin-4-yl)oxy)-2-nitro-[1,1′-biphenyl]-4-yl)-[1,1′-biphenyl]-3-carboxamide]: the IC50 in assay [1] (setting [11]) amounted to 2480 ± 770 nM; in assay [2] (setting [12]), 3320 ± 250 nM.
Regarding `COc1ccc(C(=O)Nc2ccc(-c3ccc(OC4CCN(C)CC4)cc3)cc2)cc1-c1cccc(N)c1` [Compound 50c, 3′-amino-6-methoxy-N-(4′-((1-methylpiperidin-4-yl)oxy)-[1,1′-biphenyl]-4-yl)-[1,1′-biphenyl]-3-carboxamide], the IC50 in assay [1] (setting [13]) came out at 1520 ± 550 nM; in assay [2] (setting [14]) it was 1670 ± 680 nM.
On to `COc1cccc(-c2cc(C(=O)Nc3ccc(-c4ccc(OC5CCN(C)CC5)cc4OC)cc3)ccc2OC)c1` [Compound 29f, 3′,6-dimethoxy-N-(2′-methoxy-4′-((1-methylpiperidin-4-yl)-oxy)-[1,1′-biphenyl]-4-yl)-[1,1′-biphenyl]-3-carboxamide], for which the IC50 was 1410 ± 350 nM in assay [1] (setting [11]) and 1350 ± 160 nM in assay [2] (setting [12]).
The like results for `COc1cccc(-c2cc(C(=O)Nc3ccc(-c4ccc(OC5CCN(C)CC5)cc4)cc3Cl)ccc2OC)c1` [Compound 29l, N-(3-chloro-4′-((1-methylpiperidin-4-yl)oxy)-[1,1′-biphenyl]-4-yl)-3′,6-dimethoxy-[1,1′-biphenyl]-3-carboxamide] were, in that order, 4750 nM and 1800 ± 190 nM.
As to `CC(=O)Oc1ccc(C(=O)Nc2cccc(-c3ccc(OC4CCN(C)CC4)cc3)c2)cc1CC=C(C)C` [Compound 61e, 2-(3-methylbut-2-en-1-yl)-4-((4′-((1-methylpiperidin-4-yl)oxy)-[1,1′-biphenyl]-3-yl)carbamoyl)phenyl acetate], the figures for the half-maximal inhibitory concentration (IC50) in assay [1] (setting [9]) and in assay [2] (setting [10]) were 3470 nM and 2710 ± 400 nM, respectively.
Consider `COc1cccc(-c2cc(C(=O)Nc3ccc(-c4ccc(OC5CCN(C)CC5)cc4)cn3)ccc2OC)c1` [Compound 19d, 3′,6-dimethoxy-N-(5-(4-((1-methylpiperidin-4-yl)oxy)phenyl)pyridin-2-yl)-[1,1′-biphenyl]-3-carboxamide], for which the IC50 in assay [1] (setting [5]) was 1070 ± 10 nM; in assay [2] (setting [6]) it was 1020 ± 10 nM.
Consider `COc1ccc(C(=O)Nc2ccc(-c3ccc(OC4CCN(C)CC4)cc3)cc2)cc1-c1cccc(OC(C)=O)c1` [Compound 49d, 2′-methoxy-5′-((4′-((1-methylpiperidin-4-yl)oxy)-[1,1′-biphenyl]-4-yl)carbamoyl)-[1,1′-biphenyl]-3-yl acetate], for which the IC50 in assay [1] (setting [13]) amounted to 270 ± 50 nM; in assay [2] (setting [14]), 620 ± 70 nM.
Consider `COc1cccc(-c2cc(C(=O)Nc3ccc(-c4ccc(OC5CCN(C)CC5)cc4)cc3[N+](=O)[O-])ccc2OC)c1` [Compound 34d, 3′,6-dimethoxy-N-(4′-((1-methylpiperidin-4-yl)oxy)-3-nitro-[1,1′-biphenyl]-4-yl)-[1,1′-biphenyl]-3-carboxamide], for which the concentration for half-maximal inhibition (IC50) came out at 920 nM in assay [1] (setting [11]) and 1150 ± 10 nM in assay [2] (setting [12]).
In the case of `COc1cccc(-c2cccc(C(=O)Nc3ccc(-c4ccc(OC5CCN(C)CC5)cc4)cc3)c2)c1` [Compound 49b, 3′-methoxy-N-(4′-((1-methylpiperidin-4-yl)oxy)-[1,1′-biphenyl]-4-yl)-[1,1′-biphenyl]-3-carboxamide], the half-maximal inhibitory concentration (IC50) in assay [1] (setting [13]) was determined as 810 ± 140 nM; in assay [2] (setting [14]), 1020 ± 80 nM.
With `CN1CCC(Oc2ccc(-c3ccc(NC(=O)c4ccc(I)cc4)cc3)cc2)CC1` [Compound 41d, 4-iodo-N-(4′-((1-methylpiperidin-4-yl)oxy)-[1,1′-biphenyl]-4-yl)benzamide], the IC50 was determined as 310 ± 90 nM in assay [1] (setting [7]) and 580 ± 10 nM in assay [2] (setting [8]).
For `COc1cccc(-c2cc(C(=O)Nc3ccc(-c4ccc(OC5CCN(C)CC5)cc4)c(OC)c3)ccc2OC)c1` [Compound 29g, 3′,6-dimethoxy-N-(2-methoxy-4′-((1-methylpiperidin-4-yl)oxy)-[1,1′-biphenyl]-4-yl)-[1,1′-biphenyl]-3-carboxamide], the IC50 in assay [1] (setting [11]) came out at 900 ± 80 nM; in assay [2] (setting [12]) it was 1500 ± 80 nM.
The like results for `COc1cccc(-c2cc(C(=O)Nc3ccc(-c4ccc(OC5CCN(C)CC5)cc4)c(C)c3)ccc2OC)c1` [Compound 29c, 3′,6-dimethoxy-N-(2-methyl-4′-((1-methylpiperidin-4-yl)oxy)-[1,1′-biphenyl]-4-yl)-[1,1′-biphenyl]-3-carboxamide] were, in that order, 970 ± 10 nM and 1570 ± 560 nM.
Take `COc1cccc(C(=O)Nc2cccc(-c3ccc(OC4CCN(C)CC4)cc3)c2)c1` [Compound 6g, 3-methoxy-N-(4′-((1-methylpiperidin-4-yl)oxy)-[1,1′-biphenyl]-3-yl)benzamide]: the IC50 turned out to be 8360 ± 1350 nM in assay [1] (setting [3]) and 4500 ± 460 nM in assay [2] (setting [4]).
In the case of `COc1cccc(-c2cc(C(=O)Nc3ccc(-c4ccc(OC5CCN(C)CC5)cc4[N+](=O)[O-])cc3)ccc2OC)c1` [Compound 34b, 3′,6-dimethoxy-N-(4′-((1-methylpiperidin-4-yl)oxy)-2′-nitro-[11′-biphenyl]-4-yl)-[1,1′-biphenyl]-3-carboxamide], the IC50 was 1070 nM in assay [1] (setting [11]) and 1300 ± 120 nM in assay [2] (setting [12]).
Consider `CN1CCC(Oc2ccc(-c3cccc(NC(=O)c4cccc5ccccc45)c3)cc2)CC1` [Compound 6p, N-(4′-((1-methylpiperidin-4-yl)oxy)-[1,1′-biphenyl]-3-yl)-1-naphthamide], for which the IC50 is 1640 ± 130 nM in assay [1] (setting [3]) and 1100 ± 170 nM in assay [2] (setting [4]).
Take `CN1CCC(Oc2ccc(-c3ccc(NC(=O)c4ccc(Br)cc4)cc3)cc2)CC1` [Compound 41c, 4-bromo-N-(4′-((1-methylpiperidin-4-yl)oxy)-[1,1′-biphenyl]-4-yl)benzamide]: the IC50 in assay [1] (setting [7]) came out at 520 ± 210 nM; in assay [2] (setting [8]) it was 520 ± 150 nM.
Turning to `CN1CCC(Oc2ccc(-c3ccc(NC(=O)c4ccc(Cl)c(Cl)c4)cc3)cc2)CC1` [Compound 41n, 3,4-dichloro-N-(4′-((1-methylpiperidin-4-yl)oxy)-[1,1′-biphenyl]-4-yl)benzamide], the concentration for half-maximal inhibition (IC50) in assay [1] (setting [7]) was 1200 ± 80 nM; in assay [2] (setting [8]) it was 1600 ± 160 nM.
